Measurements: ChEMBL document CHEMBL1141736, “DNA polymerase and topoisomerase II inhibitors from Psoralea corylifolia” (J Nat Prod, 1998)
One block for each compound: values may come before it. Active and inactive are the calls of the source. The rule behind the calls is not given here.

Tests used:
Assay type in all cases: cell-based
CV-1 [1] = test: Inhibition of replicative DNA polymerase epsilon in SV40 virus infected african green monkey CV1 cells; conditions: Chlorocebus aethiops
CV-1 [2] = test: Inhibition of replicative DNA polymerase […] in SV40 virus infected african green monkey CV1 cells; conditions: Chlorocebus aethiops
CV-1 [3] = test: Inhibition of replicative DNA polymerase gamma in SV40 virus infected african green monkey CV1 cells; conditions: Chlorocebus aethiops
[4] = target: DNA topoisomerase 2-alpha (Homo sapiens, UniProt P11388); test: Inhibition of DNA topoisomerase 2 in human HeLa cells by kinetoplast DNA decantation assay
DNA topoisomerase 2-alpha, sequence (P11388 whole entry): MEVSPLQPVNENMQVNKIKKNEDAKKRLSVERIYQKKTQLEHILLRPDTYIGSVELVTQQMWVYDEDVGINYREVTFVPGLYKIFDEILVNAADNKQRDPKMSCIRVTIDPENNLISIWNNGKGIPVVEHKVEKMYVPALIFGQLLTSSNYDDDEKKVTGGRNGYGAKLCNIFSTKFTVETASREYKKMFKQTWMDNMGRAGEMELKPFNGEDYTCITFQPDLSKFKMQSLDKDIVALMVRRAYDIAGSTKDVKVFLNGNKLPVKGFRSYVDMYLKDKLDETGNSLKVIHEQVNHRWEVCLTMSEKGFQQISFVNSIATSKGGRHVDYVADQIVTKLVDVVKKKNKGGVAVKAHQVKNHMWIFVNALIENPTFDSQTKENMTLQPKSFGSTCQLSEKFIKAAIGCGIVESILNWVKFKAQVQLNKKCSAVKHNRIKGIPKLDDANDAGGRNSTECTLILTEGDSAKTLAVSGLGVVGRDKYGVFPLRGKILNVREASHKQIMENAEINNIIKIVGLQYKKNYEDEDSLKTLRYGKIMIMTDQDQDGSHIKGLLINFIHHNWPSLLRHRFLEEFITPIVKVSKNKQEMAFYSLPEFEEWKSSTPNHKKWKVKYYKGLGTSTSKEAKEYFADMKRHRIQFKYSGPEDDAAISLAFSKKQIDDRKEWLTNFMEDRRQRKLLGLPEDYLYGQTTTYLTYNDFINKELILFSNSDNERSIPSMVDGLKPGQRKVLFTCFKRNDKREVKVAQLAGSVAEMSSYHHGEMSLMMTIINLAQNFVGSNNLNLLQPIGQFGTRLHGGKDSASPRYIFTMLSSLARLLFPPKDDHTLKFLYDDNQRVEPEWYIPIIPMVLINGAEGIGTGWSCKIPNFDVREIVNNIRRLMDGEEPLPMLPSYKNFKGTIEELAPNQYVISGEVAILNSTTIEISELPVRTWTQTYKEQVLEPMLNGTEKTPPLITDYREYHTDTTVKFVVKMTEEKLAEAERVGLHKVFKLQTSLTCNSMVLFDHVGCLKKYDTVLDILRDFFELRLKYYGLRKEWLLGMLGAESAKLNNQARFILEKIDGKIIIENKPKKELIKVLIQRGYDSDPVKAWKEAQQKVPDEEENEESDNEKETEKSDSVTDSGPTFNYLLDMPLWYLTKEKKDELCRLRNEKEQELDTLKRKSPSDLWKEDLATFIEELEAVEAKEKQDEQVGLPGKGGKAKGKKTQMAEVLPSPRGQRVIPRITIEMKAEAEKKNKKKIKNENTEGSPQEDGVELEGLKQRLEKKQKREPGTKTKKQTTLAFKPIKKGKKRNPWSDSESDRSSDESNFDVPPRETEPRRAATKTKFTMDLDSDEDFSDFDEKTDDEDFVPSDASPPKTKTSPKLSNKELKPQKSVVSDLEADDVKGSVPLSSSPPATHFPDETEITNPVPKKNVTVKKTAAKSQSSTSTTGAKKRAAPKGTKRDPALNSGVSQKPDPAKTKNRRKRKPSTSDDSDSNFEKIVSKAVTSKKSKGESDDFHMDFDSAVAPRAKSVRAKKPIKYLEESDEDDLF

Structure (SMILES): C=C[C@@](C)(/C=C/c1ccc(O)cc1)CCC=C(C)C
Activity (CV-1 [1]): Active | Activity (CV-1 [2]): inactive | Activity (CV-1 [3]): inactive

Activity [4]: inactive
Structure (SMILES): O=c1ccc2cc3ccoc3cc2o1

IC50 [4]: 404 µM
Structure (SMILES): O=c1ccc2c(ccc3ccoc32)o1 [BAKUCHICIN]

Activity [4]: inactive
Structure (SMILES): CC(C)=CCc1cc(-c2coc3cc(O)ccc3c2=O)ccc1O
